# Laboratory results taken from patent publication EP0385663B1, “Heterocyclic cycloalkanes as inhibitors of 5-lipoxygenase” (ZENECA LIMITED, priority 1989, dated 1990).
# Legend:
# cyclooxygenase = target: T1, cyclooxygenase (Homo sapiens, UniProt P23219); experiment: Test b): heparinised human blood challenged with A23187, TxB₂ radioimmunoassay; assay type: cell-based; conditions: read-out: IC₅₀ (TxB₂)
# T1 construct: incubating a test compound with heparinised human blood; endogenous in cells; host or cells: blood cells (platelets) in heparinised human whole blood
# T1 sequence (P23219 24-599): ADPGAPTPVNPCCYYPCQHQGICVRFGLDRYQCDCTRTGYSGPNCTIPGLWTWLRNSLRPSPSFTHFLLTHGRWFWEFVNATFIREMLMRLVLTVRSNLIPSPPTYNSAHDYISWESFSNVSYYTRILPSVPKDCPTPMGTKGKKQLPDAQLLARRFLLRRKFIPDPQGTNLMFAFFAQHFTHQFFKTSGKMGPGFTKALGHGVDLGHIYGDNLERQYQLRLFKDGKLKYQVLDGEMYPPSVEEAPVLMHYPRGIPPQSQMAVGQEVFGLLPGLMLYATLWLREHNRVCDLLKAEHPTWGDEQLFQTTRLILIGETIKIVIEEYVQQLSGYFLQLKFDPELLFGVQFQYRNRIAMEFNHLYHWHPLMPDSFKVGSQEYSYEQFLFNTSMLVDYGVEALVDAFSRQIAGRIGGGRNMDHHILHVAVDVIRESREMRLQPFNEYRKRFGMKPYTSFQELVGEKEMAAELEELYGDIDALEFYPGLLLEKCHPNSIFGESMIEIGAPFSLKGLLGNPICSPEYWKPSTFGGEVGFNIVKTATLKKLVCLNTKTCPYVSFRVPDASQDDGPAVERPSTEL
# Protocol: (§1) As stated previously, the heterocyclic cycloalkanes of the formula I are inhibitors of the enzyme 5-LO. […] This test provides a measure of the intrinsic inhibitory properties against soluble 5-LO in an extracellular environment. • b) An in vitro assay system involving incubating a test compound with heparinised human blood, prior to challenge with the calcium ionophore A23187 and then indirectly measuring the inhibitory effects on 5-LO by assaying the amount of LTB₄ using the specific radioimmunoassay described by Carey and Forder (F. Carey and R.A. Forder, Brit. […] The effects of a test compound on the enzyme cyclooxygenase (which is involved in the alternative metabolic pathway for arachidonic acid and gives rise to prostaglandins, thromboxanes and related metabolites) may be measured at the same time using the specific radioimmunoassay for thromboxane B₂(TxB₂) described by Carey and Forder (see above). […] It permits the selectivity of the inhibitory effect on 5-LO or cyclooxygenase to be assessed. • c) An ex vivo assay system, which is a variation of test b) above, involving administration of a test compound (usually orally as the suspension produced when a solution of the test compound in dimethylsulphoxide is added to carboxymethylcellulose), blood collection, heparinisation, challenge with A23187 and radioimmunoassay of LTB₄ and TxB₂. […]
# 5-LO = experiment: Test c): ex vivo assay, compound administered, blood collected, A23187 challenge, LTB₄ radioimmunoassay; assay type: in vivo
# Protocol: as §1
structure (smiles),measurement,setting,value
"CO[C@@H]1CCC[C@]1(OC)c1cccc(OCC#Cc2ccccn2)c1 (relative stereo) [Example 2, trans-1,2-dimethoxy-1-[3-(3-(2-pyridyl)prop-2-yn-1-yloxy)phenyl]cyclopentane]",IC50,cyclooxygenase,> 40 µM
same,oral ED₅₀(LTB₄),5-LO,< 100 mg/kg
